Data set [1] relates to Experimental Model of Parkinson's Disease Induced by Administration of MPTP. Description: Experimental model of Parkinson's disease induced by administration of MPTP; striatal dopamine and DOPAC content by HPLC. The conditions noted are these: for DOPAC content / Dopamine content: average ± standard deviation. The class given is in vivo, mice. The method, then:
Improvement Effect of the Compound of the Present Invention in Experimental Model of Parkinson's Disease Induced by Administration of MPTP Male C57BL/6 mice (body weight: 20 to 28 g) were divided into groups each having 6 to 12 animals. Without anesthetizing, MPTP (10 mg/kg; 1-methyl-4-phenyl-1,2,3,6-tetrahydropyridine hydrochloride) was intraperitoneally administered to the mice 4 times at intervals of 1 hour (Brain Res., 824: 224-231 (1999)). To the models thus prepared, Compound A of the present invention ((R)-2-propyloctanoic acid) was administered after 1, 6, 24 and 48 hours. Three days after the final administration, striata of the mice were collected. After weighing, the striata were immediately frozen and stored. Then, dopamine content and DOPAC (3,4-dihydroxypyenylacetate) content were measured by HPLC in a conventional manner and evaluated. […] Dunnett's multiple comparison test (both sides) was performed on the basis of the data of the group with the administration of MPTP alone. The values in Table 1 are shown by the average±the standard deviation.

The next data set relates to dogs. Description: Single intravenous dose toxicity in dogs. Type of data set: in vivo. The note with it: single dose of 100 mg/kg. The text has this: It has been confirmed that the compounds of the present invention represented by formula (I) have such low toxicity as being sufficiently safe in using as drugs.
Where [2] appears, read: Compound A alone 30 mg/kg, no MPTP, male C57BL/6 mice, striatum.
Setting [3] is: MPTP (10 mg/kg i.p. x4) + compound A 3 mg/kg at 1, 6, 24 and 48 hours, striatum 3 days after final administration.
Setting [4] is: MPTP (10 mg/kg i.p. x4) + compound A 10 mg/kg at 1, 6, 24 and 48 hours, striatum 3 days after final administration.
Where [5] appears, read: MPTP (10 mg/kg i.p. x4) + compound A 30 mg/kg at 1, 6, 24 and 48 hours, striatum 3 days after final administration.

This note sets out measurements from patent US20060052453A1, “Agent for treating Parkinson's disease comprising astrocyte function-improving agent as active ingredient” (priority 2000, published 2006).

On to `CCCCCC[C@@H](CCC)C(=O)O` [Compound A, (R)-2-propyloctanoic acid], for which the DOPAC content in data set [1] (setting [2]) is 2.97 ± 0.49 µg/g; in data set [1] (setting [3]) it was 1.30 ± 0.31 µg/g; in data set [1] (setting [4]) it was 2.07 ± 0.77 µg/g; in data set [1] (setting [5]) it was 2.26 ± 0.52 µg/g. Besides, the Dopamine content is 12.17 ± 1.41 µg/g in data set [1] (setting [2]), 4.13 ± 1.48 µg/g in data set [1] (setting [3]), 5.45 ± 2.00 µg/g in data set [1] (setting [4]) and 6.75 ± 2.72 µg/g in data set [1] (setting [5]). In addition, the “Dopamine and DOPAC content compared with the group of MPTP alone” value in data set [1] (MPTP + compound groups vs MPTP alone, Dunnett's multiple comparison test) is “significantly increased dopamine and DOPAC content depending on the dose”. For the same molecule, the “Adverse effect when used alone” value in data set [1] (compound alone in normal animals, data compared with control group) is “no adverse effect”. Moreover, the Death entry in the data set on dogs is given as “no case of death was observed”.
